Literature values as cited in patent publication US7144595B2, “Prepared foods containing triglyceride-recrystallized non-esterified phytosterols” (Brandeis University, priority 2001, dated 2006).

Test system: humans

For `CC[C@H](CC[C@@H](C)[C@H]1CC[C@H]2[C@@H]3CC=C4C[C@@H](O)CC[C@]4(C)[C@H]3CC[C@]12C)C(C)C` [beta sitosterol], the “lowering of serum cholesterol” value (12–18 g per day in divided doses, males with atherosclerosis (Faquhar 1956)) is listed as 15–20%.
In the case of `CC[C@H](CC[C@@H](C)[C@H]1CC[C@H]2[C@@H]3CC=C4C[C@@H](O)CC[C@]4(C)[C@H]3CC[C@]12C)C(C)C` [sitosterol], the “decrease of plasma cholesterol level” value (9–18 grams per day, coarse powdered form) is given as “approximately 15%”.
